From the NIST ThermoML archive (doi:10.1016/j.jct.2008.07.021)
Numbers after ± are expanded uncertainties.

Assays:
[1] = Crystal; DTA
[2] = Molar enthalpy of transition or fusion; details: Crystal; DSC
[3] = molar enthalpy of vaporization or sublimation; details: 298.15 K; Crystal; Static calorimetry

SMILES	Triple point temperature [1] [K]	Molar enthalpy of transition or fusion [2] [kcal/mol]	molar enthalpy [3] [kcal/mol]
COc1cccc2c1CCCC2=O [3,4-dihydro-5-methoxy-1(2H)-naphthalenone]	362.52 ± 0.39	5.29 ± 0.124	23.4 ± 0.215
COc1ccc2c(c1)CCCC2=O [3,4-dihydro-6-methoxy-1(2H)naphthalenone]	351.27 ± 0.49	5.45 ± 0.182	25 ± 0.43
COc1ccc2c(c1)C(=O)CCC2 [7-methoxy-1-tetralone]	334.79 ± 0.39	5.54 ± 0.127	24.6 ± 0.43
